Measurements from patent US20250177340A1, “Tartaric Acid Analogs and Uses Thereof” (Lapix Therapeutics, Inc., priority 2021, published 2025).

Columns and labels:
TIM3 and PD-1 = assay: TIM3+/PD-1+ double-positive murine CD8+ T-cells, Example 7; assay type: cell-based, C57BL/6 mice; details: for effect on PS-stimulated TIM3+/PD-1+ double-positive CD8+ T-cells: 0.1 mM PS; for average reduction in TIM3+/PD-1+ double-positive CD8+ T-cells vs 0.1 mM PS treated cells / average reduction in TIM3+/PD-1+ double-positive CD8+ T-cells vs negative control: absence of PS, dose-independent
Excerpt: In this study, the effects of increasing doses of compound B and compound C on proliferation (CFSE staining), activation (Granzyme B and IFN-γ), and checkpoint modulation (PD1 and TIM3) of murine CD8+ T-cells in the presence and absence of phosphatidylserine (PS) were explored.
Preparation of test materials: 30:70 PS:DMPC liposomes were synthesized in PBS. […] Compound C was first dissolved in a small volume of DMSO before diluting to the final desired concentration.
Tissue culture and dosing: Splenocytes of C57BL/6 mice were stained with CFSE and prepared, cultured, and dosed. Cells were seeded at 4×10^5 cells/well.
Controls: Two controls were used. A negative control dosed with 10 ng/ml IL-2 was used, and a positive control dosed with 20 μg/ml ConA and 10 ng/ml IL-2 was used.
Treatment: After ConA stimulation (10 μg/ml), cells were dosed with log 3 dilution of compound B or compound C to cover a range from 1×10^−3 to 30 mM in duplicates with or without 0.1 mM PS:DMPC liposomes. All wells were dosed with 10 ng/ml of IL-2.
Flow cytometer: Flow cytometer analysis was performed to assess cell proliferation by CFSE, activation by double staining for Granzyme B (GzmB) and IFN-γ, checkpoint modulation by double staining for PD-1 and TIM3.
Exposure-response analysis: Change from baseline was calculated for each marker as follows:
Concentration versus change was fitted to an appropriate three-, four- or five-parameter log-logistic model using “dre” package in “R.”
The fold change from baseline of TIM3+/PD-1+ double-positive CD8+ T-cells as a function of increasing doses of compound B was calculated using equation 1, where Responsecontrol was TIM3+/PD-1+ double-positive CD8+ T-cells in cells treated with IL-2 alone and Responsetreatment was TIM3+/PD-1+ double-positive CD8+ T-cells at each dose of compound B. The baseline PS response was calculated using the same equation with Responsetreatment as the TIM3+/PD-1+ double-positive CD8+ T-cells treated with 0.1 mM PS.

B16F10 melanoma cells = assay: Tumor growth inhibition and overall survival, SC B16F10 melanoma (Example 13); assay type: in vivo, mice; details: Compound B 4 mg/mouse PO QD x7, Compound C 2.5 mg/mouse IV QD; for animals showing any tumor growth: by day 14; for animals with measurable tumors: by day 16; for tumor volume versus placebo group: duration of the study
Method: This study was designed to evaluate the effects of Compound B and Compound C on tumor growth and the overall survival of animals implanted SC with 10^5 melanoma cells. Furthermore, ex vivo analysis of splenocytes at the end of dosing was used to evaluate change in the T-cell population and function. FIG. 8A is a diagram of the study design.
Animals were housed four per cage and had access to food and water ad libitum. Compound B was dissolved in sterile PBS, and pH was adjusted to approximately 7.5. Compound C was first dissolved in DMSO before diluting in sterile PBS. Sterile PBS was used as a control. Compound B was dosed at 4 mg/mouse PO QD. This dose was expected to result in an exposure equivalent to a 1 mg/mouse IV dose. Compound C was dosed at 2.5 mg/mouse IV.
B16F10 melanoma cells were grown in RPMI 1640 media supplemented with 10% FBS and antibiotics (penicillin/streptomycin) using T75 flasks. When cells reached 70-80% confluency, they were treated with 3 ml of 0.25% trypsin/EDTA. Detached cells were harvested. A single-cell suspension was prepared in PBS. A dorsal SC injection of 10^5 cells in mice marked day 0 of the experiment. Animals were monitored daily, and tumors were measured twice a week.
For tumor growth inhibition, animals were divided into 3 groups. The control group received an IV injection of PBS to match the start time, dosing volume, and dosing frequency of the Compound C treatment group. The treatment group received 100 μl of 4 mg/mouse PO QD of Compound B for 7 days starting at day 7 after tumor implantation, or 2.5 mg/mouse IV QD of Compound C. The endpoint was reached when the tumor reached 1 cm^3. Tumor volume was calculated using the following formula:
Tumor volume=length×width×½ width
The mice were also monitored for survival, and were euthanized when the tumor size reached the predefined endpoint of 1 cm^3.

KLRG-1 = assay: Percent KLRG-1+/CD8+ T-cells in splenocytes after a single dose, melanoma murine model; assay type: in vivo, mice
Method: The pharmacodynamic (PD) effects of a single IV dose of Compound B in a melanoma murine model were evaluated. B16F10 melanoma cells were grown in RPMI 1640 media supplemented with 10% FBS and antibiotics (penicillin/streptomycin) using T75 flasks. When cells reached 70-80% confluency, they were treated with 3 ml of 0.25% Trypsin/EDTA. Afterward, detached cells were harvested. A single-cell suspension was prepared in PBS. An IV injection of 10^5 cells in mice marked day −3 of the experiment.
Animals were housed four per cage, and had access to food and water ad libitum. Compound B was dissolved in sterile PBS, and pH was adjusted to approximately 7.5. Sterile PBS served as control.
Three days after the IV injection of melanoma cells, animals in the baseline group (n=3) were sacrificed and their spleens were collected for KLRG-1, CTLA-4, and PD-1 analysis. At each predetermined time-point (24, 48, and 120 hours after dosing) three animals from each group were sacrificed for splenocyte analysis of KLRG-1, CTLA-4, and PD-1 expression levels, and expression levels were compared to baseline.
Spleens collected for splenocyte analysis were prepared into a single-cell suspension for cellular phenotyping by flow cytometry. Cells were stained and gated for CD8. Percent KLRG-1+, CTLA-4+, and PD-1+ CD8+ T-cells were evaluated using flow cytometry.
The PD effects of a single IV dose of Compound C were evaluated in a melanoma murine model conducted as described in Example 10. […] This study also evaluated whether Compound C was pharmacodynamically active orally.
In a prior study, Compound C was dosed at 1 mg IV QD for seven days. […] A single PO dose was chosen to confirm oral activity of Compound C. Compound C was dissolved in DMSO, and then diluted in sterile PBS. pH was adjusted to approximately 7.5.
The oral and intravenous PD effects of a single dose of Compound E were evaluated in a melanoma murine model conducted as described in Example 10.
Compound E was dissolved in DMSO, and then diluted in sterile PBS. pH was adjusted to approximately 7.5.

Oral bioavailability = assay type: in vivo

For O=C(O)[C@H](O)[C@@H](O)C(=O)OCCC(c1ccccc1)c1ccccc1 [Compound C, (2R,3R)-4-(3,3-diphenylpropoxy)-2,3-dihydroxy-4-oxobutanoic acid], the “effect on PS-stimulated TIM3+/PD-1+ double-positive CD8+ T-cells” value (TIM3 and PD-1) was “can reverse the stimulatory effect of PS”, the “average reduction in TIM3+/PD-1+ double-positive CD8+ T-cells vs 0.1 mM PS treated cells” value (TIM3 and PD-1) was “about ⅘” and the “average reduction in TIM3+/PD-1+ double-positive CD8+ T-cells vs negative control” value (TIM3 and PD-1) was “about ⅔”. The “animals did not survive the study” value (B16F10 melanoma cells) was 2/8, the “animals survived tumor-free for the duration of the study” value (B16F10 melanoma cells) was 5/8 and the “animals survived with a tumor (to day 28)” value (B16F10 melanoma cells) was 1/8. The survival (B16F10 melanoma cells) was 80%, the “animals showing any tumor growth” value (B16F10 melanoma cells) was 0/8 and the “animals with measurable tumors” value (B16F10 melanoma cells) was 0. The “tumor volume versus placebo group” value (B16F10 melanoma cells) was “statistically lower”, the “KLRG-1+/CD8+ T-cells, mean” value (KLRG-1; 0.025 mg/mouse IV single dose, 24 h) was 4.9% and the “KLRG-1+/CD8+ T-cells, mean” value (KLRG-1; 0.1 mg/mouse IV single dose, 24 h) was 4.1%. For the same compound, the “KLRG-1+/CD8+ T-cells, mean” value (KLRG-1; 0.25 mg/mouse IV single dose, 24 h) was 3.4%, the “KLRG-1+/CD8+ T-cells, mean” value (KLRG-1; 1 mg/mouse IV single dose, 24 h) was 3.3% and the oral pharmacodynamic activity (KLRG-1; 2.5 mg PO single dose) was “not orally effective at the tested dose”. The “KLRG-1+/CD8+ T-cells, mean” value (KLRG-1; 2.5 mg/mouse po single dose, 24 h) was 4.6%, the “decrease in KLRG-1+/CD8+ T-cells compared to baseline” value (KLRG-1; 0.25- and 1-mg IV groups) was “approximately 15%” and the “decrease in KLRG-1+/CD8+ T-cells compared to time match control” value (KLRG-1; 0.25- and 1-mg IV groups) was “approximately 31%”. For the same compound, the “change in KLRG-1+/CD8+ T-cells compared to baseline or control” value (KLRG-1; remaining groups (0.025, 0.1 mg IV, 2.5 mg PO)) was “No meaningful changes” and the oral bioavailability (Oral bioavailability; prior study) was “not orally bioavailable”.

In the case of O=C(O)[C@H](O)[C@@H](O)C(=O)OCCCc1ccccc1 [Compound B, (2R,3R)-2,3-dihydroxy-4-oxo-4-(3-phenylpropoxy)butanoic acid], the “effect on PS-stimulated TIM3+/PD-1+ double-positive CD8+ T-cells” value (TIM3 and PD-1) is reported as “reverse the stimulatory effects of PS”, the “average reduction in TIM3+/PD-1+ double-positive CD8+ T-cells vs 0.1 mM PS treated cells” value (TIM3 and PD-1) is reported as “about ⅔” and the “average reduction in TIM3+/PD-1+ double-positive CD8+ T-cells vs negative control” value (TIM3 and PD-1) is reported as “about ⅗”. The “animals did not survive the study” value (B16F10 melanoma cells) was 3/7, the “animals survived tumor-free for the duration of the study” value (B16F10 melanoma cells) was 3/7 and the “animals survived with a tumor (to day 28)” value (B16F10 melanoma cells) was 1/7. For the same compound, the survival (B16F10 melanoma cells) was 40%, the “animals showing any tumor growth” value (B16F10 melanoma cells) was 3/7 and the “animals with measurable tumors” value (B16F10 melanoma cells) was 3. The “tumor volume versus placebo group” value (B16F10 melanoma cells) was “statistically lower”, the “KLRG-1+/CD8+ T-cells, mean” value (KLRG-1; 0.14 mg/mouse IV single dose, 24 h) was 6.2% and the “KLRG-1+/CD8+ T-cells, mean” value (KLRG-1; 0.14 mg/mouse IV single dose, 48 h) was 4.8%. The “KLRG-1+/CD8+ T-cells, mean” value (KLRG-1; 0.14 mg/mouse IV single dose, 120 h) was 11.4%, the “KLRG-1+/CD8+ T-cells, mean” value (KLRG-1; 0.7 mg/mouse IV single dose, 24 h) was 6.5% and the “KLRG-1+/CD8+ T-cells, mean” value (KLRG-1; 0.7 mg/mouse IV single dose, 48 h) was 3.0%. The “KLRG-1+/CD8+ T-cells, mean” value (KLRG-1; 0.7 mg/mouse IV single dose, 120 h) was 11.7%, the “KLRG-1+/CD8+ T-cells, mean” value (KLRG-1; 1.4 mg/mouse IV single dose, 24 h) was 7.6% and the “KLRG-1+/CD8+ T-cells, mean” value (KLRG-1; 1.4 mg/mouse IV single dose, 48 h) was 2.5%. For the same compound, the “KLRG-1+/CD8+ T-cells, mean” value (KLRG-1; 1.4 mg/mouse IV single dose, 120 h) was 11.3%, the “time of nadir of exhaustion markers after dosing” value (KLRG-1; single dose, KLRG-1, CTLA-4, PD-1) was 48 h and the bioavailability (Oral bioavailability; mouse, in vivo, po, data not shown) was roughly 30%.
